Test results: US9242985B2, “Structural mimetics of proline-rich peptides and use thereof” (priority 2011, dated 2016)
No end group written: not given here.

What was measured:
Format in all cases: binding
EVH1 domain (VASP-EVH1) [1] = target: T1, EVH1 domain (VASP-EVH1) (Homo sapiens, UniProt P50552); assay: Bonding affinity to EVH1 domain by fluorescence titration
Source text: (§1) With the aid of the synthetic compound 85, by way of an example, the ligand peptides were synthetized with partially or completely substituted proline sequences and then examined for their interaction with the EVH1 domain (p=component 85). It was found therein that, due to the insertion of the mimetic 85, it was possible to increase the bonding affinity of the ligand peptides relative to the domain.
(§2) This is summarized in Table 1 below, which lists the bonding affinities of the ligand peptides as well as of the underlying native peptide ligands.
(§3) The bonding affinities were determined by means of fluorescence titration and isothermal calorimetry (p=component 85, wherein x denotes the already known PPII-mimetic amino acid according to structure 86 (presently as Fmoc-protected amino acid); and “2-Cl—F” stands for 2-Cl-phenylalanine).

EVH1 domain (VASP-EVH1) [2] = target: T1, EVH1 domain (VASP-EVH1); assay: Bonding affinity to EVH1 domain by isothermal calorimetry (ITC)
Source text: as §1, §2, §3

VASP-EVH1 = VASP-EVH1 (Homo sapiens, UniProt P50552); assay: Further experiments: bonding affinity of ligand peptides to the domain (method not given)
Sequence of VASP-EVH1 (P50552 2-113 limits assumed): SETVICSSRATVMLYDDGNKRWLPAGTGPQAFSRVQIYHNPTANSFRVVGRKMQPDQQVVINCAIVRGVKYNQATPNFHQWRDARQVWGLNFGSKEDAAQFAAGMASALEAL
Source text: In addition, the observed increase in affinity with the compounds according to the invention allows for the first time ever to forego using natural amino acids completely, while still preserving the ability to bind to the EVH1 domains: […]

VASP-EVH1 domain = VASP-EVH1 domain (Homo sapiens, UniProt P50552)
Sequence of VASP-EVH1 domain (P50552 2-113): as the sequence (P50552 2-113 limits assumed) above
Source text: In addition, based on a number of different test ligand peptides, it was possible to gain an overview of the bonding affinities.

T1 sequence (P50552 2-113): as the sequence (P50552 2-113 limits assumed) above

Compound: CC(=O)N[C@@H](CO)C(=O)N[C@@H](Cc1ccccc1)C(=O)N[C@@H](CCC(=O)O)C(=O)N[C@@H](Cc1ccccc1Cl)C(=O)N1CCC[C@H]1C(=O)N1CCC[C@H]1C(=O)N1CCC[C@H]1C(=O)N1CCC[C@H]1C(=O)N[C@H](C(=O)N[C@@H](CCC(=O)O)C(=O)N[C@@H](CC(=O)O)C(=O)N[C@@H](CCC(=O)O)C(=O)N[C@@H](CC(C)C)C(N)=O)[C@@H](C)O
- Kd (EVH1 domain (VASP-EVH1) [1]): 5 µM
- Kd (EVH1 domain (VASP-EVH1) [2]): 2000 nM

Compound: Ac-FPPPP [Ac-(SEQ ID NO: 4)-OH]
- Kd (VASP-EVH1): > 500 µM

Compound: FPPPPT [FPPPPT]
- bonding affinity KD (VASP-EVH1 domain): no measurable affinity
